Where a name gives a salt, the structure may show the parent alone. Read-outs that look alike come from different tables or passages of the source.

Assay [1] deals with isolated guinea pig trachea. The assay can be described thus: Isolated guinea pig trachea relaxation test. The note with it: Cavia porcellus, read-out: Contraction-inhibiting rate (%). How it is done:
The tracheas were isolated from guinea pigs (Hartley, male, age 7 to 9 weeks, supplier: Nippon SLC) followed by cutting as rings containing cartilage. The trachea specimens were suspended in Krebs solution containing 3 μM indomethacin while applying a load of 1.0 g, and changes in tension were measured through an FD pickup (TB-611T, Nippon Kohden). […] After causing the trachea specimen to contract by electrical field stimulation (SEN-3401, Nippon Kohden) and the contractive reaction being stable, a test compound dissolved in dimethylsulfoxide was added to cause the trachea specimen to relax. The inhibiting rate to the contractive reaction before adding the compound was calculated.

Assay [2] concerns the target T1, human EP2 receptor (Homo sapiens, UniProt P43116).
T1 construct: host or cells: HEK293 cells
The experiment in a line: Measurement of EP2 agonist activity (cAMP in HEK293 cells expressing human EP2 receptor). In kind it is cell-based. The note with it: cAMP increase in HEK293 cells expressing human EP2 receptor, 30 minutes. As for the experimental part: Measurement of EP2 agonist activity was carried out in compliance with the method of Wilson et al. (European Journal of Pharmacology, 501, 49 (2004)). HEK293 cells expressing human EP2 receptor (ES-562-C, available from Euroscreen) were cultured in MEM medium containing 10% FBS and seeded at 2×10^4 cells per well of a 96-well plate. On the following day, the medium was replaced with serumfree MEM medium containing 3-isobutyl-1-methylxanthine (final concentration: 500 μM) and after culturing for 30 minutes, a test compound dissolved in dimethylsulfoxide was added followed by allowing to stand undisturbed in a carbon dioxide incubator. After 30 minutes, the amount of cAMP in the cells was measured with a cAMP Biotrak EIA System kit (available from GE Healthcare Biosciences). The concentration of test compound required to increase the amount of cAMP to 50% of the maximum increase (EC50 value) was calculated by non-linear regression of the test compound concentration and amount of cAMP using EXSAS.

Assay [3] has as its target T1, human EP2 receptor. The assay can be described thus: Measurement of EP2 receptor binding action. The following applies: membrane fraction of HEK293 cells expressing human EP2 receptor; [3H]prostaglandin 10 nM; Ki calculated from IC50. How it is done: Measurement of EP2 receptor binding action was carried out in compliance with the method of Abramovitz et al. (Biochimica et Biophysica Acta, 1483, 285 (2000)). A test compound dissolved in dimethylsulfoxide and [^3H]prostaglandin […] (NET-428, PerkinElmer) (final concentration: 10 nM) were added to a buffer solution (10 mM MES-KOH (pH 6.0), 10 mM MgCl2, 1 mM EDTA) in which was suspended 10 μg of a membrane fraction of HEK293 cells expressing human EP2 receptor (ES-562-M, available from Euroscreen) followed by incubating at 30° C. for 60 minutes. The membrane fraction was recovered on glass fiber filter paper (GF/B, Whatmann) using a cell harvester (M30R, Brandel), and after washing with buffer solution (10 mM MES-KOH (pH 6.0), 10 mM MgCl2), radioactivity was measured with a liquid scintillation analyzer (2000CA, Packard).
Ki=IC50/(1+([^3H]prostaglandin E2 concentration/Kd))
The dissociation constant (Kd value) was calculated by Scatchard analysis.

T1 sequence (P43116 whole entry): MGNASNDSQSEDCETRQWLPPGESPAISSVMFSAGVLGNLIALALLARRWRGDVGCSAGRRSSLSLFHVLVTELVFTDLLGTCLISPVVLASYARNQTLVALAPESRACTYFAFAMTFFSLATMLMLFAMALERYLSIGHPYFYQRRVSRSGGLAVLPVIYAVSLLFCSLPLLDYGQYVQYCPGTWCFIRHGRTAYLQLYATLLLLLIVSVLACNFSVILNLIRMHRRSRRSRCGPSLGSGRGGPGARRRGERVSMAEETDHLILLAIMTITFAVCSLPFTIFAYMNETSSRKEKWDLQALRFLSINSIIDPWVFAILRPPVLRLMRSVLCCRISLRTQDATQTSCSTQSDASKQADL

Take `CNc1ccc(CN(Cc2cccc(NCC(=O)O)n2)S(=O)(=O)c2cccnc2)cc1` [Example 1, {6-[(4-Methylaminobenzyl) (pyridin-3-ylsulfonyl)aminomethyl]pyridin-2-ylamino}-acetic acid]: the inhibition at 10 µM in assay [1] was 95%.
Consider `CCCS(=O)(=O)N(C)c1ccc(CN(Cc2cccc(NCC(=O)O)n2)S(=O)(=O)c2cccnc2)cc1` [Example 2, [6-({4-[Methyl(propylsulfonyl)amino]benzyl}(pyridin-3-ylsulfonyl)aminomethyl)pyridin-2-ylamino]acetic acid], for which the inhibition at 10 µM in assay [1] was found to be 86%.
With `CC[N+](C)(CC)c1ccc(CN(Cc2cccc(NCC(=O)O)n2)S(=O)(=O)c2cccnc2)cc1` [Example 4, [6-({4-[Diethyl(methyl)ammonio]benzyl}(pyridin-3-ylsulfonyl)aminomethyl)pyridin-2-ylamino]acetic acid hydrochloride], the inhibition at 10 µM in assay [1] (test compound concentration 10 μM, contraction by electrical field stimulation) came to 81%.
For the molecule `CCCC(=O)N(C)c1ccc(CN(Cc2cccc(NCC(=O)O)n2)S(=O)(=O)c2cccnc2)cc1` [Example 5, [6-({4-[Butyryl(methyl)amino]benzyl}(pyridin-3-ylsulfonyl)aminomethyl)pyridin-2-ylamino]acetic acid], the inhibition at 10 µM in assay [1] came to 92%.
The same measure, in the same setting: the value for `CN(Cc1ccccc1)c1ccc(CN(Cc2cccc(NCC(=O)O)n2)S(=O)(=O)c2cccnc2)cc1` [Example 6, [6-({4-[Benzyl(methyl)amino]benzyl}(pyridin-3-ylsulfonyl)aminomethyl)pyridin-2-ylamino]acetic acid] was 94%.
As for `CCCCN(C)c1ccc(CN(Cc2cccc(NCC(=O)O)n2)S(=O)(=O)c2ccccn2)cc1` [Example 7, [6-({4-[Butyl(methyl)amino]benzyl}(pyridin-2-ylsulfonyl)aminomethyl)pyridin-2-ylamino]acetic acid], the EC50 in assay [2] was 1.2 nM. Moreover, in assay [1], the inhibition at 0.03 µM was determined as 84%. Further, in assay [3], the Ki is 10 nM.

Values taken from US20120184747A1, “ANILINE COMPOUND” (UBE INDUSTRIES, LTD., priority 2009, published 2012).
